Assays:
Format in all cases: in vitro ADME
[1] = molecular target: T1, CYP2C9 (Homo sapiens, UniProt P11712); assay: CYP2C9 inhibition (HLM), diclofenac
T1 construct: Two studies were conducted in human liver microsomes (HLM); tissue Eurofins G232 panel; host or cells: human liver microsomes
Method: (§1) Compound 5 (PTG-630 free base) and 7 additional compounds for CYP3A P450 inhibition.
(§2) Two studies were conducted in human liver microsomes (HLM). Lead candidate PTG-630 was tested using the Eurofins G232 panel (Drug Metab Dispos. 2001 January; 29(1):23-9), where inhibition was measured against seven CYP enzymes; CYP3A4 was tested using two different substrates, midazolam and testosterone. In a second study, inhibition of CYP3A4 (midazolam substrate only) was compared for 8 compounds of interest. The test protocol involved one-point measurements in duplicate, where inhibition was measured at a fixed 10 μM concentration of candidate inhibitors. In all cases, the substrate for each CYP enzyme was at a concentration equal to its specific Km value that was independently obtained from an 8-point dose-response study. Based on the observed value for percent inhibition for each test compound, we calculated of an IC50 assuming a competitive mode of inhibition. If percent inhibition for an inhibitor at a concentration of [I] is denoted by P, then: IC50=[I]*(100−P)/P In the single-point assay, [I] is 10 μM. If measured inhibition is 10%, then IC50=10*(100-10)/10=90 μM. […] As discussed in Lin et al. (J Pharm Sci. 2007 September; 96(9):2485-93; doi: 10.1002/jps.20884), CYP inhibition is broadly interpreted as being “potent” if IC50<1 μM, “moderate” if 1 μM<IC50<10 μM, and “weak” if IC50>10 μM.

[2] = molecular target: T2, CYP1A (Homo sapiens, UniProt P05177); assay: CYP1A inhibition (HLM) phenacetin
T2 construct: Two studies were conducted in human liver microsomes (HLM); tissue Eurofins G232 panel; host or cells: human liver microsomes
T2 sequence (P05177 1-516): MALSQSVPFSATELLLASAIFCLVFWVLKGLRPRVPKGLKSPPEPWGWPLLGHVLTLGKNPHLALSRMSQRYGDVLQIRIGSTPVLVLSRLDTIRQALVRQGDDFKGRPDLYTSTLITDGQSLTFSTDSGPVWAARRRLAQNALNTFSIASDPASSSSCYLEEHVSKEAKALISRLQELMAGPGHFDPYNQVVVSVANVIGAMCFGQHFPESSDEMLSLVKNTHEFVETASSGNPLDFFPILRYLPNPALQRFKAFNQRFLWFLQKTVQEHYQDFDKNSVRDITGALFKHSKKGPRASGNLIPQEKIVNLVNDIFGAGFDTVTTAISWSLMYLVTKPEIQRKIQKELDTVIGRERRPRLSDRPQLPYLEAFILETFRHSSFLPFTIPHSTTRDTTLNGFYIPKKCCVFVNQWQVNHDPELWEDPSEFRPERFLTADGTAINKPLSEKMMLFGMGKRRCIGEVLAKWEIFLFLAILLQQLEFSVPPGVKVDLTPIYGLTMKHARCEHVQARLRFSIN
Method: as §1, §2

[3] = molecular target: T3, CYP2C19 (Homo sapiens, UniProt P33261); assay: CYP2C19 inhibition (HLM), omeprazole
T3 construct: Two studies were conducted in human liver microsomes (HLM); tissue Eurofins G232 panel; host or cells: human liver microsomes
T3 sequence (P33261 whole entry): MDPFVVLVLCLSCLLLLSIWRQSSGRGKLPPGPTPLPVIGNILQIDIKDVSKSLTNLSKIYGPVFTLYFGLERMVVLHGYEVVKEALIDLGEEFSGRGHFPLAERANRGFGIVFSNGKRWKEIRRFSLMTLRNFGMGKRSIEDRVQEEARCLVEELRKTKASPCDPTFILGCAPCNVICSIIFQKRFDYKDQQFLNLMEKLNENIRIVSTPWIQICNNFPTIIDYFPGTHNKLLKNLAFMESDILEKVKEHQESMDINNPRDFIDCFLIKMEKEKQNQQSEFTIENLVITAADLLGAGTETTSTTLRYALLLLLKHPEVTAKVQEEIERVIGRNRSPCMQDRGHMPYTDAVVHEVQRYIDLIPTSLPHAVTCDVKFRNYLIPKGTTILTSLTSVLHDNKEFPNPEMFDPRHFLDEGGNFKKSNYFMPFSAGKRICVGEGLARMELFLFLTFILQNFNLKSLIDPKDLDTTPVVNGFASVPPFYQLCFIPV
Method: as §1, §2

[4] = molecular target: T4, CYP2C8 (Homo sapiens, UniProt P10632); conditions: microsomes
T4 construct: Two studies were conducted in human liver microsomes (HLM); tissue Eurofins G232 panel; host or cells: human liver microsomes
T4 sequence (P10632 1-490): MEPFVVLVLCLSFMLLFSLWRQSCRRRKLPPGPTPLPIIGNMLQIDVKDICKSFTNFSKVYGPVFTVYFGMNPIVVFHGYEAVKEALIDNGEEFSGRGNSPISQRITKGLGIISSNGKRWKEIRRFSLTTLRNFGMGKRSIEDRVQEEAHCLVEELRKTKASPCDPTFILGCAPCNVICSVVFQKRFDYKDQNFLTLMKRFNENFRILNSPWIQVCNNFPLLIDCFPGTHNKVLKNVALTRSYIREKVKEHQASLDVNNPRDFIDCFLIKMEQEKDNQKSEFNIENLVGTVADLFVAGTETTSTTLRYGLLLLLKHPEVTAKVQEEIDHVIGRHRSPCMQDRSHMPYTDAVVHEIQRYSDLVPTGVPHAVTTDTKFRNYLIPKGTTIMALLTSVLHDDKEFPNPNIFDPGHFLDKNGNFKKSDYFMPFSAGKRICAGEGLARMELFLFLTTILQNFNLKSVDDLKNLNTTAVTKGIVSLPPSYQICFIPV
Method: as §1, §2

[5] = molecular target: T5, CYP2B6 (Homo sapiens, UniProt P20813); conditions: microsomes
T5 construct: Two studies were conducted in human liver microsomes (HLM); tissue Eurofins G232 panel; host or cells: human liver microsomes
T5 sequence (P20813 1-491): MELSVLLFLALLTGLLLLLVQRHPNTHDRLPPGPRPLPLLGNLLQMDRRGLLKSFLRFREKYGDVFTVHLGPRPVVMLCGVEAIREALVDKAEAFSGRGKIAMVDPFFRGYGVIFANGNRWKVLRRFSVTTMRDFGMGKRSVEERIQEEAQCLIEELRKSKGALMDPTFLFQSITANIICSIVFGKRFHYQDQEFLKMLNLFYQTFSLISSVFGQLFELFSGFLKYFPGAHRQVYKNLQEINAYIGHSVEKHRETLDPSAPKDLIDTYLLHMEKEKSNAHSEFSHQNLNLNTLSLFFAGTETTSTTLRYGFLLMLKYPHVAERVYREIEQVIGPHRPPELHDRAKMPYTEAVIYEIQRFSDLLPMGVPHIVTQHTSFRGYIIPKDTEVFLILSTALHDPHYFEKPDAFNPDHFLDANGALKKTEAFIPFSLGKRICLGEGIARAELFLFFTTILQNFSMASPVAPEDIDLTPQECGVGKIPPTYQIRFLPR
Method: as §1, §2

[6] = tested on: seven CYP enzymes; assay: Eurofins G232 panel, CYP inhibition in human liver microsomes; conditions: HLM, 10 μM
Method: as §2

T1 sequence (P11712 whole entry): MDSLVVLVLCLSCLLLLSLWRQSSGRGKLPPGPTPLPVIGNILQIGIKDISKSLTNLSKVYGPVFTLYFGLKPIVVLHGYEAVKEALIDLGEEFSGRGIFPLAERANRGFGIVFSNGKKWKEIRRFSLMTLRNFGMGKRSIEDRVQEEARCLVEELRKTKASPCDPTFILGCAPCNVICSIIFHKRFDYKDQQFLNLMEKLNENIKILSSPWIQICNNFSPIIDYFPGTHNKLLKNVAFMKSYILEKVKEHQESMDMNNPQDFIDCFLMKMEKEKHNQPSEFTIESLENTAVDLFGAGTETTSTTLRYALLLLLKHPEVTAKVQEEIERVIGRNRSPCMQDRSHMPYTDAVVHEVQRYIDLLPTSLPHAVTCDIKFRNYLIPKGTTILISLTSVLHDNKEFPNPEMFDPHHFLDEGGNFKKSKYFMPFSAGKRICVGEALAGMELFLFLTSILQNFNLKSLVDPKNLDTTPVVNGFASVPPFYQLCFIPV

Cc1ncc(CN2CCOCC2)c(-c2ncc[nH]2)c1O [PTG-630]
IC50 ([1]; diclofenac, from one-point % inhibition at 10 μM, IC50=[I]*(100−P)/P, read-out: Estimated IC50): 284 µM
P % inhib ([1]; substrate diclofenac at Km, Inhib Conc. 1.0E−05 M): 3.4%
IC50 ([2]; phenacetin, from one-point % inhibition at 10 μM, IC50=[I]*(100−P)/P, read-out: Estimated IC50): 52.1 µM
P % inhib ([2]; substrate phenacetin at Km, Inhib Conc. 1.0E−05 M): 16.1%
IC50 ([3]; omeprazole, from one-point % inhibition at 10 μM, IC50=[I]*(100−P)/P, read-out: Estimated IC50): 26.4 µM
P % inhib ([3]; substrate omeprazole at Km, Inhib Conc. 1.0E−05 M): 27.5%
IC50 [4]: 37 µM
P % inhib [4]: 21.3%
IC50 [5]: 213 µM
P % inhib [5]: 4.5%
CYP inhibition (in words) [6]: weak to undetectable

Reference: patent US12139472B2, “Inhibitors of advanced glycation end products” (priority 2019, dated 2024)
